# Experimental data from a melting point compilation (Tetko et al.; mined from patent text by program, amines drawn as free bases though some values may be those of a salt).
row,Structure (SMILES),melting point [°C]
1,COC(=O)CCCCCCC1C(=O)Cc2cc(OC)ccc21 (stereo unspecified),33.5 to 35
2,Cn1c(C(F)(F)F)c(-c2ccc(C[C@H](NC(=O)c3c(F)cccc3C(F)(F)F)C(=O)O)cc2)c(=O)n(C)c1=O,122 to 125
3,CN(C)C1(c2ccccc2)CCC(CCCNC(=O)NCCc2c[nH]c3ccccc23)CC1 (stereo unspecified),57
4,CC(C)Sc1ccc(O)cc1O,67
5,CC(=O)NCC1CC1c1cccc2nscc12 (stereo unspecified),96 to 97
6,OCCOc1csc2ccccc12,55 to 56
7,CC(=O)Oc1c(C=C(C#N)C#N)[nH]c2ccccc12,210 to 212
8,c1ccc2c(N3CCCCC3)nc(N3CCCCC3)nc2c1,128 to 131
9,O=C(Nc1cccc(C(F)(F)F)c1)C1C(=O)C2CCC(C2)C1=O (stereo unspecified),68 to 69
10,CN1C(=O)Cc2cc(CCCl)ccc21,136
11,Clc1ccc(C2CCc3ccccc3O2)cc1 (stereo unspecified),76 to 77
12,COc1cc(C)c(C(=O)c2c(OC)ncc(Cl)c2C)c(OC)c1OC,92 to 94
13,O=C(N[C@H]1CC[C@H](CCN2CCC(c3cccc4c3CCO4)CC2)CC1)c1ccc(N2CCCCC2)cc1,248
14,O=C(O)c1sc2ccc3c(c2c1Cl)O[C@@H](CO)CO3,236 to 237
15,CCCCCCCCCCNC(=O)C=Cc1cccc(N2CC(C(=O)OCCN(CC)CC)CC2=O)c1 (stereo unspecified),78 to 80
16,C=CCOC(=O)Nc1cc(-c2cccc(Cl)c2)sc1C(C)(C)O,60 to 61
17,CC1(C)OC(C=Cc2ccc(C(F)(F)F)cc2)=CC1=O,94 to 95
18,O=C(NCCOC1CCCCO1)c1cc([N+](=O)[O-])cc([N+](=O)[O-])c1N(CCO)CCCl (stereo unspecified),106 to 108
19,Cc1cc(C(N)=O)ncc1C(c1c(F)ccc(F)c1F)S(=O)(=O)CCC(F)(F)C(F)(F)F (stereo unspecified),155 to 156
20,CCn1ncc2c(Cl)c3cc(SC)ccc3nc21,120 to 121

row,Structure (SMILES),melting point [°C]
1,COc1ccccc1Oc1c(Cl)nc(SC)nc1Cl,148 to 150
2,CN1C(=O)CC[C@]2(C)c3ccc(-c4ccc5c(c4)CCC5O)cc3CC[C@@H]12 (stereo partly specified),185 to 190
3,COc1cc(C(=O)C(C)C)cc([N+](=O)[O-])c1O,85 to 87
4,Cc1cnc(N2CCN(C(=O)OC(C)(C)C)CC2)c2ccoc12,108
5,COCCc1nc2c(N)nc3ccc(CCC(=O)N4CCOCC4)cc3c2n1CCCN1CCCC1=O,168 to 170
6,CC1(C)OC(C(F)(F)F)Nc2ccc(-c3cccc(Cl)c3)cc21 (stereo unspecified),108 to 109
7,O=S(=O)(Cl)c1ccc(SSc2ccc(S(=O)(=O)Cl)cc2)cc1,139
8,O=C1Nc2ccc(Cl)cc2C2(c3ccccc3)OCCN12 (stereo unspecified),216 to 217
9,Cn1c(C(F)(F)F)ccc(-c2cc3[nH]c(=O)oc3cc2Cl)c1=O,263 to 265
10,CCCCCCCCCCCCCCCCC(C(=O)OC(C)(C)C)C(=O)c1ccc(C(=O)OC(C)C)c(Cl)c1 (stereo unspecified),44
11,COC(=O)C1=C(C)NC(C(=N)N)=C(C(=O)OC(C)C)C1c1ccccc1[N+](=O)[O-] (stereo unspecified),203
12,O=C1CC(N2C=Nc3cc(Cl)cc(Cl)c3C2)C(=O)N1 (stereo unspecified),215 to 217
13,Cc1cc2c(c(C)c1O)C(C)(C)C(C)C2C (stereo unspecified),55 to 57
14,COC(=O)c1nn(-c2ccccc2)c2sc(CN3CCOCC3)cc2c1=O,167 to 169
15,"COc1ccc2c(c1)CCC1C2=CCC2(C)C(OC(C)(C)C)CCC12 (single isomer, unassigned; (+))",131 to 132
16,CC(C)CCCC(=S)SCC(C)C,43 to 44
17,CN1C(=O)CN(CCC#N)C1=O,53
18,CCOC(=O)C1CCN(S(=O)(=O)c2ccc(Br)cc2)CC1,132 to 133
19,COc1cc2nc(-c3ccc(Cl)cc3)nc(O)c2cc1OC,329
20,C=CCSCCON=C(C(=O)O)c1csc(NC=O)n1,70 to 78

row,Structure (SMILES),melting point [°C]
1,CCOC(=O)c1cnc2nc(C)c(OCC)cc2c1Cl,> 250
2,COC(=O)C(Cc1ccccc1)NC(=O)C(CC(=O)O)NC(=O)CC(C)=O (stereo unspecified),118 to 121
3,Cc1nc(N(C)C)nc(N)c1-c1cc(Cl)cc(Cl)c1Cl,151 to 153
4,C=C(C)C[C@@H]1C(=O)N(c2ccc(C#N)c(Cl)c2)[C@@H](C)[C@H]1O,110 to 112
5,CCOC(=O)CN1C(=O)COc2cc(N)ccc21,136 to 137
6,CS(=O)(=O)ON=C(Cl)c1ccc(Cl)cc1,80 to 82
7,O=C(c1ccc(F)cc1)N1CCC[C@H](c2nc(-c3ccc[nH]3)no2)C1,130 to 135
8,CN1CCc2[nH]c3ccc4sccc4c3c2C1,189
9,O=C(NCCSCc1cccc(I)c1)c1c(Cl)cccc1Cl,75 to 78
10,Nc1ccc(CCNC(=O)c2cc(O)c(O)c(O)c2)cc1,167 to 169
11,Cc1cccc(CC(=O)NC(C)C)c1NC(=O)c1cc(C(F)(F)F)nn1-c1ncccc1Cl,206 to 207
12,O=Cc1c(Cl)c(Br)c(Br)c(Br)c1Br,268 to 269
13,CC(=O)NCCn1c(O)nc2ccc(Cl)nc21,200 to 220
14,CCNC(=O)NC(CC)c1ccc(Cl)c2nc3n(c12)CCCN3c1ccc(Cl)cc1Cl (stereo unspecified),250 to 252
15,COc1ccc(/C=C(\C#N)c2ccccc2F)cc1OC1CCCC1,70 to 73
16,CNC(=O)c1ccc(N2CCN(c3ccncc3)CC2)cc1,239 to 242
17,CCCC1CCC(C2CCc3c4c(c(F)c(F)c3O2)OCCC4)CC1 (stereo unspecified),152
18,CC(C)(C)CNc1ccnc2sc(C(N)=O)c(N)c12,238 to 240

# Results, then the compound that gave them:
row,melting point [°C],Structure (SMILES)
1,140 to 141,CCC(=O)NCc1ccc(CN2CCN(c3ccccc3)CC2)cc1
2,188,CS(=O)(=O)CCCn1c(=NC(=O)c2cccc(Cl)c2)sc2cc(OC(F)(F)F)ccc21
3,116 to 117,CCOC(=O)c1ccccc1-n1cnc2c(C)c(C(=O)OCC)c(C)cc2c1=O
4,89 to 99,O=S(=O)(Nc1ccc2c(OCc3csc(-c4ccccc4)n3)cccc2c1)C(F)(F)F
5,116 to 117,O=S(=O)(NCc1ccccc1)c1ccc(Br)cc1
6,109 to 110,O=C(O)[C@H](Cc1cccc(OC(F)(F)C(F)F)c1)[C@@H](O)c1ccc(Oc2ccccc2)cc1 (racemic)
7,111 to 112,CCOc1nn(-c2cc(C(F)(F)F)ccn2)cc1CCCOc1ccc(CCC(=O)O)cc1OC
8,146 to 148,O=C(c1ccccc1)c1ccc(OCCCOc2ccc(C(=O)c3ccccc3)cc2)cc1
9,85 to 85.5,O=C(c1ccccc1)C(O)O
10,144,COc1ccccc1-c1oc2cccc3c2c1C=CC3=O
11,279 to 283,c1ccc(-c2noc(-c3cc4c(cn3)[nH]c3ccccc34)n2)cc1
12,83 to 85,COC(=O)C(C)Oc1ccc(COc2ccc(-n3nc(C)n(C(F)F)c3=O)c(F)c2)cc1 (stereo unspecified)
13,161 to 162,Cc1c(NC(=O)c2ccc(Oc3ccccc3)cc2)ccc2cc(CN3CCCC3)cnc12
14,81 to 82,CCOC(=O)C(=C1CCCN1C)c1ccc(OC)cc1
15,218 to 220,COc1ccc2c(c1)c1c(n2Cc2ccc(Cl)cc2)CCCC1C(=O)O (stereo unspecified)
16,130 to 132,CCON=C(C(C)=NOCc1ccccc1C(=NOC)C(=O)NC)c1ccc(OCc2cccc(C(F)(F)F)c2)cc1
17,205 to 208,CC(C)NC(=O)c1cc(Oc2ccc3c(C(=O)Nc4cccc(C(F)(F)F)c4)cccc3c2)ncn1
18,184 to 186,O=C1N(N(c2ccccc2)c2ccccc2)c2ccccc2C1(Cc1ccncc1)Cc1ccncc1
19,281 to 283,O=C(O)c1ccc2oc(-c3ccccc3)cc(=O)c2c1
20,173 to 175,CC(C)(C)Sc1c(CC(C)(C)C(=O)O)n(Cc2ccc(Cl)cc2)c2ccc(OCc3cnccn3)cc12
21,170 to 177,Nc1nc2c(ncn2COC(COCc2ccccc2)COCc2ccccc2)c(=O)[nH]1
22,153 to 154,CS(=O)(=O)c1ccc(-c2cnn(Cc3ccc(F)cc3)c(=O)c2-c2ccc(F)cc2)cc1

row,melting point [°C],Structure (SMILES)
1,49 to 51,COC(=O)c1cccc(CN2CCN(c3nc(C)c(C(=O)NCc4ccccc4)s3)C2=O)c1
2,47 to 48,COC(=O)COc1ccc(CCCO)cc1
3,88 to 90,COc1ccc(-n2nc(CBr)cc2-c2ccc(Cl)cc2)cc1
4,56 to 58,Nc1ccc(OCCCCCC(=O)OCCOCCOC(=O)CCCCCOc2ccc(N)cc2)cc1
5,162 to 165,Cc1nc(Nc2ccccc2)sc1-c1ccc(Cl)c([N+](=O)[O-])c1
6,180 to 182,O=C(NCC1Cc2cc(Br)cc3[nH]c(=O)c(=O)n1c23)c1ccccc1 (stereo unspecified)
7,94 to 95,CCCc1sc(N)c(C(=O)c2ccc(Cl)cc2)c1C
8,117 to 118,COc1ccc(-c2nc(-c3ccccc3)sc2-c2ccc(OC)cc2)cc1
9,> 300,CCOC(=O)c1ccc(-c2cc3c(Nc4ccc(F)c(Cl)c4)ncnc3[nH]2)cc1
10,95 to 97,CC(=C(c1ccc(N(C)C)cc1)c1ccc(N(C)C)cc1)P(c1ccccc1)c1ccccc1
11,105 to 107,O=C(O)c1ccccc1OCCN1CCC(c2cn(Cc3ccoc3)c3ncccc23)CC1
12,220,Oc1ccc(-c2cnc(-c3ccccc3)[nH]c2=S)cc1O
13,33,CCCCCc1ccc(C(=O)Oc2ccc(C#N)c(F)c2F)cc1
14,180 to 182,COc1cccc(CC(N)C(=O)O)c1OCCc1ccccc1 (racemic)
15,136 to 142,COCCc1nc2c(N)nc3ccccc3c2n1CCCCCCCCNC(=O)Nc1ccccc1
16,136 to 138,Cc1ccc(NC(=N)Nc2ncccc2OCc2c(F)cccc2Cl)cc1
17,142 to 143,C=CCSc1cc(C(=O)O)cc(N)c1Oc1ccccc1
18,78 to 81,O=C1Cc2cc(NC(=O)C(=O)N3CCC(Oc4ccccc4)CC3)ccc2N1
19,97 to 98,CC(C)(C)[Si](Oc1ccc(OCC2CO2)cc1)(c1ccccc1)c1ccccc1 (stereo unspecified)
20,212,CCOC(=O)c1cnc2c3ccc(OC)cc3ccn2c1=O
21,167 to 169,O=C(O)c1ccc(NCCCc2ccccc2)cn1
